Data on 14 compounds can be found in PubChem BioAssay (NCI).

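Protocol summary: plate cells (96-well), add compound at 5 concentrations, incubate 48 h, interpolate endpoints linearly. TGI: total growth inhibition.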

Among the test systems are K-562 leukemia; UACC-257 melanoma; IGROV1 ovarian; OVCAR-8 ovarian; SR leukemia; BT-549 breast; NCI/ADR-RES ovarian; PC-3 prostate; SF-539 CNS; CAKI-1 renal.
What all share (experiment): DTP human tumour cell line panel, 48 h

For `COC(=O)c1c(O)ccc2c1c1c(n2Cc2ccccn2)C(=O)c2ccccc2C1=O`, the TGI in the test with K-562 leukemia was over 100 µM; with UACC-257 melanoma, over 100 µM; with IGROV1 ovarian, over 100 µM; with OVCAR-8 ovarian, over 100 µM; in the test with SR leukemia it was 64.2 µM; with BT-549 breast, over 100 µM. The TGI in the test with NCI/ADR-RES ovarian is over 100 µM; in the test on PC-3 prostate, over 100 µM; in the test on SF-539 CNS it was 42.9 µM; in the test on CAKI-1 renal, over 100 µM.
On to `COc1cc2c(cc1OC(=O)c1cc3ccccc3[nH]1)N=C[C@@H]1CCCN1C2=O`, for which the TGI with K-562 leukemia was 2.83 µM; in the test on UACC-257 melanoma, 0.691 µM; in the test on IGROV1 ovarian it was over 39.6 µM; in the test on SR leukemia it was 0.969 µM; in the test with BT-549 breast, 5.37 µM; in the test on NCI/ADR-RES ovarian it was over 100 µM. For the same compound, the figures for the TGI with PC-3 prostate, in the test on SF-539 CNS and with CAKI-1 renal were 6.93 µM, 1.17 µM and 13.8 µM, respectively.
Consider `CCOC(=O)C1C[C@H]2CO[C@H](c3ccccc3)N2C1=O` (some centres undefined), for which the TGI with K-562 leukemia, in the test with UACC-257 melanoma, with IGROV1 ovarian, with OVCAR-8 ovarian, with SR leukemia and in the test with BT-549 breast was over 100 µM throughout. For the same compound, the TGI with NCI/ADR-RES ovarian, in the test on PC-3 prostate, in the test on SF-539 CNS and in the test with CAKI-1 renal was over 100 µM throughout.
In the case of `O=C(Cc1ccccc1)N=Nc1c(O)[nH]c2ccccc12`, the TGI in the test on K-562 leukemia, in the test with UACC-257 melanoma, in the test on IGROV1 ovarian, in the test on OVCAR-8 ovarian, in the test with SR leukemia and in the test with BT-549 breast was over 100 µM each time. Further, the TGI in the test on NCI/ADR-RES ovarian, in the test with PC-3 prostate and with SF-539 CNS was over 100 µM throughout.
With `CCOC(=O)C1=CC(C)(C(=O)OCC)Nc2c(nc(SC)n(C)c2=O)N1` (centres undefined), the TGI in the test on K-562 leukemia, with UACC-257 melanoma, with IGROV1 ovarian, in the test with OVCAR-8 ovarian, in the test on BT-549 breast and in the test with NCI/ADR-RES ovarian was over 10 µM in each case. Besides, the TGI in the test on PC-3 prostate, in the test with SF-539 CNS and in the test on CAKI-1 renal was over 10 µM in each case.
With `CC1=Nc2c(C#N)ncn2N=C(C)C1`, the TGI in the test with K-562 leukemia, in the test on UACC-257 melanoma, in the test with IGROV1 ovarian, in the test with SR leukemia, with BT-549 breast and in the test with NCI/ADR-RES ovarian was over 100 µM throughout. Moreover, the TGI in the test on PC-3 prostate, in the test with SF-539 CNS and in the test on CAKI-1 renal was over 100 µM throughout.
As to `O=C(CCc1ccc(O)c(O)c1)NCCc1ccc(O)c(O)c1`, the TGI was over 100 µM in the test with K-562 leukemia; over 100 µM in the test on UACC-257 melanoma; over 100 µM in the test with IGROV1 ovarian; 32.4 µM in the test on OVCAR-8 ovarian; 74.1 µM with SR leukemia; over 100 µM with BT-549 breast. Besides, the TGI with NCI/ADR-RES ovarian, in the test with PC-3 prostate and in the test with SF-539 CNS was over 100 µM in each case.
For `O=C1c2ccccc2-c2nnc(-c3ccc(Cl)cc3)cc21`, the TGI in the test with K-562 leukemia, in the test on UACC-257 melanoma, in the test on IGROV1 ovarian, with OVCAR-8 ovarian, with SR leukemia and in the test with BT-549 breast was over 10 µM each time. The TGI with NCI/ADR-RES ovarian, with PC-3 prostate, in the test with SF-539 CNS and with CAKI-1 renal was over 10 µM in each case.
In the case of `CCOC(=O)c1nc2cc(C(F)(F)F)ccc2nc1Nc1ccc(F)cc1`, the TGI in the test with K-562 leukemia was 39.9 µM; in the test with UACC-257 melanoma, over 100 µM; in the test with IGROV1 ovarian, over 100 µM; in the test with OVCAR-8 ovarian it was over 100 µM; in the test on BT-549 breast, over 100 µM; in the test on NCI/ADR-RES ovarian it was over 100 µM. For the same compound, the TGI with PC-3 prostate is over 100 µM; with SF-539 CNS it was 55.9 µM; in the test on CAKI-1 renal, over 100 µM.
Take `O=c1oc2c/c(=C\c3ccccc3)c(=O)c3cccc1c3-2`: the TGI in the test on UACC-257 melanoma was over 100 µM; in the test on IGROV1 ovarian, 56.7 µM; in the test on OVCAR-8 ovarian it was 43.1 µM; in the test on SR leukemia it was over 100 µM; in the test on BT-549 breast, 51.6 µM; in the test with NCI/ADR-RES ovarian it was over 100 µM. Also, the TGI was over 100 µM in the test on PC-3 prostate, 67.1 µM in the test with SF-539 CNS and 55.8 µM in the test with CAKI-1 renal.
On to `O=C(O)CN(CC(=O)O)Cc1ccn(-c2cccc(-n3ccc(CN(CC(=O)O)CC(=O)O)n3)n2)n1`, for which the TGI in the test on UACC-257 melanoma, with IGROV1 ovarian, in the test with OVCAR-8 ovarian, in the test with SR leukemia, with BT-549 breast and in the test on NCI/ADR-RES ovarian was over 100 µM each time. Besides, the TGI with PC-3 prostate, with SF-539 CNS and in the test with CAKI-1 renal was over 100 µM each time.
As to `COc1cc(O)c2c(=O)c(OC)c(-c3ccc4c(c3)OCO4)oc2c1OC`, the concentration for total growth inhibition (TGI) with K-562 leukemia, in the test on UACC-257 melanoma, in the test with IGROV1 ovarian, in the test on OVCAR-8 ovarian, in the test with BT-549 breast and with NCI/ADR-RES ovarian was over 50 µM throughout. For the same compound, the TGI with PC-3 prostate, with SF-539 CNS and with CAKI-1 renal was over 50 µM throughout.
For `CNC(=O)c1ccccc1[S+]1c2cccc3cccc(c23)C(=O)N1C` (centres undefined), the TGI with K-562 leukemia, in the test with UACC-257 melanoma, with IGROV1 ovarian, in the test on OVCAR-8 ovarian, in the test on BT-549 breast and in the test with NCI/ADR-RES ovarian was over 100 µM each time. For the same compound, the TGI in the test with PC-3 prostate, with SF-539 CNS and in the test on CAKI-1 renal was over 100 µM throughout.
Turning to `Cc1cc2c(c(C(=O)NCCC(=O)N[C@@H](C)C(=O)OCc3ccccc3)c1)Oc1c(cc(C)cc1C(=O)NCCC(=O)N[C@@H](C)C(=O)OCc1ccccc1)S2`, the TGI with K-562 leukemia, in the test with UACC-257 melanoma, with IGROV1 ovarian, in the test on OVCAR-8 ovarian, with SR leukemia and in the test on BT-549 breast was over 100 µM each time. Further, the TGI in the test on NCI/ADR-RES ovarian, in the test with PC-3 prostate and with CAKI-1 renal was over 100 µM in each case.
